Data taken from patent US9802976B2, “Method for preparing substituted 3,7-dihydroxy steroids” (NeurMedix, Inc., priority 2008, dated 2017).
Marks after values point to notes of the source that are not given here.

Columns and labels:
estrogen receptors = experiment: Binding capacity of impurities to estrogen receptors; design: species or system human; conditions: impurities in Compound 1 from Process A, Route 1 after recrystallization; directly or from the product after ester hydrolysis
Procedure: (§1) Estrogen receptor binding assay: A suitable example system is an estrogen receptor-kit manufactured by PanVera for ERIβ, which contains recombinant estrogen receptor β ligand, FLUORMONE™ ES2 (ES2), a fluorescently labeled estrogen ligand, and appropriate buffer. […] When bound to ERβ, ES2 tumbles slowly and has a high fluorescence polarization value.
(§2) The competition assay was conducted according to the manufacturer's protocol (Lit. No. L0712, Rev. 10/03). Assay reagents used were bacculovirus expressed, full length human ERβ […] in 50 mM Bis-Tris Propane (pH=9), 400 mM KCl, 2 mM DTT, 1 mM EDTA, 10% glycerol, ES2 400 nM in methanol and E2 screening buffer consisting of 100 mM potassium phosphate (pH=7.4), 100 μg/mL BGG, 0.02% NaN3. The ES2-ERβ complex was formed with 20 μL 20 nM ERβ (0.020 pmol/μL) and 20 μL 2 nM ES2 (0.002 pmol/μL). Positive control (estrogen) solution was prepared using 20 μL of a 1.0 mM stock solution in DMSO and 80 μL DMSO. In a first dilution, 50 μL of this solution is added to 50 μL of DMSO, which is followed by dilutions in 2-fold increments, to provide for a 14 point dilution curve. In a second dilution, to 4 μL of each DMSO solution from the first dilution is added 400 μL of ES2 screening buffer. […] Fluorescence polarization values are obtained using 485 nm excitation and 530 nm emission interference filters. […]

[1] = test system: nuclear sex steroid receptors; experiment: Binding activity at nuclear sex steroid receptors; conditions: essentially free defined in b31 as Ki>10 μM
Source text: The term “binding activity” refers to the ability of a specified compound, a preparation comprising Compound 1 or impurity (or impurities) in a preparation of Compound 1 to bind to or associate with a receptor, typically a sex steroid receptor such as an androgen receptor or an estrogen receptor to effect or modulate the receptor's biological activity. Binding is usually measured in assays as the capacity of a compound, usually an impurity in a preparation comprising Compound 1, to displace a physiologically relevant ligand of a receptor (i.e., reference ligand) that is bound to that receptor in a competition assay. The reference ligand is typically a natural ligand of the receptor or an agonist of the receptor that has been labeled with a radioactive or spectroscopic probe whose presence may be queried by scintillation counting or by a spectroscopic method such as fluorescence emission or fluorescence polarization.
The radioactive probe is typically ^3H and/or ^14C, where radioactive atom(s) have replaced one or more of atoms of the ligand at positions where loss of the radiolabel would not occur to an extent under conditions of the assay that would complicate or confound interpretation of the assay results. […]

ERβ = target: T1, ERβ (Homo sapiens, UniProt Q92731); experiment: Estrogen receptor binding assay (fluorescence polarization competition), ERβ
T1 construct: Assay reagents used were bacculovirus expressed, full length human ERβ; purchased PanVera; host or cells: baculovirus expression system
T1 sequence (Q92731 whole entry): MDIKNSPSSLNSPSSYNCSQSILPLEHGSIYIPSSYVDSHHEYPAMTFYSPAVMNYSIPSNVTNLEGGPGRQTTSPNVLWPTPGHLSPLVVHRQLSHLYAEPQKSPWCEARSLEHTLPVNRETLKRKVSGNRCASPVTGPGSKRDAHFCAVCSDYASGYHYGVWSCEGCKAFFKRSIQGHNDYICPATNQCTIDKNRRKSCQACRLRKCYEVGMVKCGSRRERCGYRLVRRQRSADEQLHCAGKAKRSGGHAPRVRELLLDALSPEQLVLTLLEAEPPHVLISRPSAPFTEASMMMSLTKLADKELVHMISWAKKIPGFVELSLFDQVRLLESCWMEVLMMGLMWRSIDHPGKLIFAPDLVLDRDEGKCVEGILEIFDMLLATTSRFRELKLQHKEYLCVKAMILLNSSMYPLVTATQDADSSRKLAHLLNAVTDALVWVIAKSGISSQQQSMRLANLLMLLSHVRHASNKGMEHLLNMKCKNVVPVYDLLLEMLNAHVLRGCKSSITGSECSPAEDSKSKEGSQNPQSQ
Procedure: as §1, §2

ERα = target: T2, ERα (Homo sapiens, UniProt P03372); experiment: Estrogen receptor binding assay (fluorescence polarization competition), ERα
T2 construct: bacculovirus expressed, full length human 2.8 pmol/μL ERα was used as reagent; purchased PanVera; host or cells: baculovirus expression system
T2 sequence (P03372 whole entry): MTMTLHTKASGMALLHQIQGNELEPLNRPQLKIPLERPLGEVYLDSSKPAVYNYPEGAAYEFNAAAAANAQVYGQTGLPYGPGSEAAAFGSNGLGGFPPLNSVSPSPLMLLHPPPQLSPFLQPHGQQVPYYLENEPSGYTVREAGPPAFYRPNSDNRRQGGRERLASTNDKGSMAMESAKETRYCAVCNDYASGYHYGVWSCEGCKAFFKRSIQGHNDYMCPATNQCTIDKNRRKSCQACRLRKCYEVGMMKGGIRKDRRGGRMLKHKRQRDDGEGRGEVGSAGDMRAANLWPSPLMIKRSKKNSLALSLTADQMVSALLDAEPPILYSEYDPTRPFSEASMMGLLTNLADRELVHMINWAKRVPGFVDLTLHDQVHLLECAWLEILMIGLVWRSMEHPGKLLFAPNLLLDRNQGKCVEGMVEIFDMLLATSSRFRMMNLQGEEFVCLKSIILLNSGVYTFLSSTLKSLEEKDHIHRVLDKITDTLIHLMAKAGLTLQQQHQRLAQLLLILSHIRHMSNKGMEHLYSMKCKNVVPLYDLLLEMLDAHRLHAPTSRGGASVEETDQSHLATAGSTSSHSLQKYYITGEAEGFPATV

[2] = Estrogenic effects seen with Compound 1 prepared by Process A; conditions: Compound 1 preparation made by Process A, Route 1 (contains 17α-ethynyl-androst-5-ene-3β,17β-diol impurity)
[3] = Compound 1 essentially free of the 3β,17β-diol impurity, tested to 10 μM

Row | Compound | binding capacity to estrogen receptors (estrogen receptors) | binding activity at nuclear sex steroid receptors [1] | activity at the estrogen receptor ERβ (ERβ; [3]) | activity at the estrogen receptor ERα (ERα; [3]) | estrogenic effects [2] | binding activity at the estrogen receptor ERβ (ERβ; receptor binding studies) | binding activity at the estrogen receptor ERα (ERα; receptor binding studies)
1 | C#CC1(O)CCC2C3CC=C4CC(OC(C)=O)CCC4(C)C3CCC21C (stereo not drawn) [17α-ethynyl-3β-acetoxy-androst-5-ene-17β-diol] | 0.05** |  |  |  |  |  | 
2 | C#C[C@@]1(O)CC[C@H]2[C@@H]3[C@@H](O)C=C4C[C@H](O)CC[C@]4(C)[C@H]3CC[C@@]21C [Compound 1, 17-Ethynyl-10R,13S-dimethyl 2,3,4,7,8R,9S,10,11,12,13,14S,15,16,17-hexadecahydro-1H-cyclopenta[a]phenanthrene-3R,7R,17S-triol] |  | essentially free of binding activity | no activity | no activity | estrogenic effects |  | 
3 | C#CC1(O)CCC2C3CC=C4CC(O)CCC4(C)C3CCC21C (stereo not drawn) [17α-ethynyl-androst-5-ene-3β,17β-diol] | 0.61** |  |  |  |  | significant binding activity | significant binding activity
